Laboratory results: patent US4120857A, “Derivatives of 1,2,3,3-tetramethyl-2-azabicyclo[2.2.2]octan-5-endo-ol” (priority 1977, dated 1978)
Like-named read-outs stand apart in the source and are kept apart here.

Columns and labels:
[1] = tested on: ventricular fibrillation by chloroform; experiment: Mouse Chloroform Test (antiarrhythmic activity); format: in vivo, female swiss albino mice; details: mice; for ED50: Mus musculus, read-out: ED50, dose required to protect 50% of the test animals against development of ventricular fibrillation by chloroform
Method: 160:22-30 (1968). The test compounds were administered orally (p.o.) or intraperitoneally (i.p.) to female swiss albino mice weighing 16-24 grams. The arrhythmia induced by the chloroform was monitored by electrocardiogram recording and the normal and abnormal heart beats were tabulated.

corneal reflex = experiment: Local Anesthetic Test (corneal reflex procedure); format: in vivo, rabbits; details: one drop into the conjunctival sac of one rabbit eye; isotonic saline
Method: In this test a corneal reflex was elicited in rabbits by lightly touching the cornea with a stiff hair or bristle which normally would cause the rabbit to blink. The assay was carried out using initially a 2% solution or suspension of the test compound in isotonic saline. A cup or pouch was formed of the lower eyelid by pulling down the lower lid, and one drop of the test compound was instilled into the conjunctival sac of one eye. The other eye serves as a control. The corneal reflex was tested every fifteen minutes until the reflex returned to normal. If the reflex could be elicited 3 out of 5 times, then there was considered to be no local anesthetic effect. If the reflex was blocked and the compound was determined to be a local anesthetic, lower concentrations were tested to determine the minimum concentration needed for local anesthetic activity. Results for several of the compounds of the present invention are expressed in the table below as the MEC (minimum effective concentration) or minimum concentration of compound required for local anesthetic activity.

[2] = tested on: genetically hypertensive (spontaneously hypertensive) rats of the Okamato strain; experiment: Spontaneously Hypertensive Rat Test (antihypertensive activity); format: in vivo; details: po, compounds dosed orally, five animals per test dose, read-out: MED (minimum effective dose), dose required to give a minimum of a 20 mm Hg drop in blood pressure from control
Text: Clin. Med. 78:957-962 (1971). Five animals were used for each test dose. Results of the test are expressed in the table below as the MED (minimum effective dose) or dose required to give a minimum of a 20 mm Hg drop in blood pressure from control. | *compounds dosed orally

SMILES | ED50 ([1]; po) [mg/kg] | MEC (minimum effective concentration), minimum concentration of compound required for local anesthetic activity (corneal reflex) [%] | ED50 ([1]; ip) [mg/kg] | other results
CN1C(C)(C)[C@H]2CC[C@]1(C)C[C@H]2OCCCNC(=O)c1ccccc1 (relative stereo) [Example 3, 5-endo-(3-Benzoylaminopropyloxy)-1,2,3,3-tetramethyl-2-azabicyclo[2.2.2]octane] | 10 | 0.5 | – | –
CC(=O)O[C@@H]1C[C@@]2(C)CC[C@@H]1C(C)(C)N2C (relative stereo) [Example 1, 5-endo-Acetoxy-1,2,3,3-tetramethyl-2-azabicyclo[2.2.2]-octane] | – | – | – | minimal effective dose [2]: 12.5 mg/kg
CN1C(C)(C)[C@H]2CC[C@]1(C)C[C@H]2OCCCNC(=O)C(c1ccccc1)c1ccccc1 (relative stereo) [Example 4, 5-endo-(3-Diphenylacetylaminopropyloxy)-1,2,3,3-tetramethyl-2-azabicyclo[2.2.2]octane] | 10 | 0.5 | – | –
CN1C2(C)CCC(C(OC(=O)c3ccccc3)C2)C1(C)C (stereo not drawn) [Example 2B, 5-endo-Benzoyloxy-1,2,3,3-tetramethyl-2-azabicyclo(2.2.2]-octane] | – | – | – | ED50, dose required to protect 50% of the test animals against development of ventricular fibrillation by chloroform ([1]; i.p.): 50 mg/kg
COc1cc(C(=O)O[C@@H]2C[C@@]3(C)CC[C@@H]2C(C)(C)N3C)cc(OC)c1OC (relative stereo) [Example 2C, 5-endo-(3,4,5-Trimethoxybenzoyl-oxy)-1,2,3,3-tetramethyl-2-azabicyclo[2.2.2]octane] | – | – | 50 | –
CCCC(=O)O[C@@H]1C[C@@]2(C)CC[C@@H]1C(C)(C)N2C (relative stereo) [Example 2D, 5-endo-Butyryloxy-1,2,3,3-tetramethyl-2-azabicyclo[2.2.2]-octane] | 80 | – | – | –
CN1C(C)(C)[C@H]2CC[C@]1(C)C[C@H]2OC(=O)Nc1ccccc1 (relative stereo) [Example 5, 5-endo-Phenylcarbamoyloxy-1,2,3,3-tetramethyl-2-azabicyclo[2.2.2]octane] | 44 | – | – | –
CN1C(C)(C)[C@H]2CC[C@]1(C)C[C@H]2OC(=O)C(c1ccccc1)c1ccccc1 (relative stereo) [Example 2G, 5-endo-(Diphenylacetoxy)-1,2,3,3-tetramethyl-2-azabicyclo[2.2.2]-octane] | 20 | 0.25 | 12.5 | –
CN1C(C)(C)[C@H]2CC[C@]1(C)C[C@H]2OC(=O)C1CC1 (relative stereo) [Example 2A, 5-endo-Cyclopropylcarbonyloxy-1,2,3,3-tetramethyl-2-azabicyclo-[2.2.2]octane] | – | – | – | minimal effective dose [2]: 25 mg/kg
CN1C(C)(C)[C@H]2CC[C@]1(C)C[C@H]2OC(=O)c1ccc(N)cc1 (relative stereo) [Example 2F, 5-endo-(p-Aminobenzoyloxy)-1,2,3,3-tetramethyl-2-azabicyclo-[2.2.2]octane] | 25 | 2.0 | 6.3 | –
